Assay [1] concerns 786-0 cells. In words: VEGF ELISA Assay. In kind it is cell-based. As to the method: Each concentration had duplicated wells. About 20 hours later, medium was removed by suction and each well was supplied with 180 μL of growth medium. About 20 μl freshly-made 10× compound stocks were added to each well. […] The EC50 was calculated by GraphPad Prism using the dose-response-inhibition (four parameter) equation. The cell seeded plate was then subjected to CellTiter-Glo luminescence cell viability assay (Promega) by adding 50 μL of Celltiter Glo reagent into each well and shaking the plate for 8 minutes at 550 rpm (Thermomixer R, Eppendorf) then read luminescence signal in plate reader (3 second delay, 0.5 second/well integration time, Synergy 2 multi Detection Microplate reader) immediately.

Assay [2] deals with 786-O-Hif-Luc cells. The assay is described as follows: Luciferase Assay. In kind it is cell-based. To be noted: read-out: Luciferase EC50. The protocol: A pool of infected cells were then selected against 2 μg/mL of puromycin (P8833, Sigma) for 10 days followed by limited dilution to select single clones.
Each concentration was tested in triplicate. After about 24 hours, luciferase activity was determined using ONE-Glo Luciferase Assay Reagent (E6110, Promega) following the manufacturer's recommended procedure. EC50 were calculated by using Dotmatics software.

For assay [3], the target named is T1, HIF-2α HIS TAG-PASB Domain (Homo sapiens, UniProt Q99814).
T1 construct: 100 nM HIF-2α HIS TAG-PASB Domain
T1 sequence (Q99814 240-350 limits assumed): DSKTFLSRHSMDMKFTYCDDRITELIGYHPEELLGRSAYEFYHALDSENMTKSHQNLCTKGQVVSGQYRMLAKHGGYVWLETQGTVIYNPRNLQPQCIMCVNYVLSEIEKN
The assay is described as follows: HIF-2α Scintillation Proximity Assay (SPA). The class given is binding. To be noted: 100 nM HIF-2α HIS TAG-PASB Domain. The method, boiled down: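 IC50 values rest on percent inhibition, where the sample signal is scaled between high and low controls. Wells contain about 100 μL: compound dispensed as 2 μL of DMSO solution, 88 μL protein-probe mix and 10 μL of beads.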

Setting [4] is: Homo sapiens, 786-0, 786-0 cells, VEGFA concentration in cell culture medium, read-out: VEGF ELISA EC50.
The mark [5] stands for this setting: 24 h, 786-O-Hif-Luc cells, about 24 hours.
Setting [6] is: SPA IC50, 150 nM Compound 211 probe.
[7] abbreviates: Homo sapiens, 786-0 cells, VEGFA concentration in cell culture medium, read-out: VEGF ELISA EC50.
[8] abbreviates: 786-O-Hif-Luc cells, about 24 hours.
[9] abbreviates: 150 nM Compound 211 probe, read-out: SPA IC50.
[10] abbreviates: Homo sapiens, 786-0, read-out: VEGF ELISA EC50.
Where [11] appears, read: 786-0 cells, VEGFA concentration in cell culture medium, read-out: VEGF ELISA EC50.

Where two headings read alike, the source gives them in different places.

As to `N#Cc1cc(F)cc(Oc2ccc(S(=O)(=O)C(F)(F)F)c3c2CC(F)(F)[C@H]3O)c1` [Compound 8, (S)-3-((2,2-Difluoro-1-hydroxy-7-((trifluoromethyl)sulfonyl)-2,3-dihydro-1H-inden-4-yl)oxy)-5-fluorobenzonitrile], the EC50 in assay [1] (setting [4]) turned out to be 0.004 µM; in assay [2] (setting [5]), 0.003 µM. Moreover, in assay [3] (setting [6]), the IC50 is < 0.005 µM.
Consider `O=S1(=O)c2ccc(Oc3cc(F)cc(Cl)c3)c(C(F)(F)F)c2C(O)C1(F)F` (stereo not drawn) [Compound 124, 5-(3-Chloro-5-fluorophenoxy)-2,2-difluoro-3-hydroxy-4-(trifluoromethyl)-2,3-dihydrobenzo[b]thiophene 1,1-dioxide], for which the EC50 in assay [1] (setting [7]) came to 0.089 µM; in assay [2] (setting [8]) it was 0.075 µM. Besides, in assay [3] (setting [6]), the IC50 is < 0.005 µM.
Consider `CS(=O)(=NC#N)c1ccc(Oc2cc(F)cc(C#N)c2)c2c1[C@H](O)C(F)(F)[C@@H]2F` (single isomer, unassigned) [Compound 80], for which the figures for the EC50 in assay [1] (setting [4]) and in assay [2] (setting [5]) were 0.017 µM and 0.012 µM, respectively. In assay [3] (setting [9]), the IC50 was < 0.005 µM.
For the molecule `N#Cc1cncc(Oc2ccc(S(=O)(=O)C(F)(F)F)c3c2C[C@@H](F)[C@H]3O)c1` [Compound 14, 5-(((1S,2R)-2-Fluoro-1-hydroxy-7-((trifluoromethyl)sulfonyl)-2,3-dihydro-1H-inden-4-yl)oxy)nicotinonitrile], the EC50 in assay [1] (setting [4]) stood at 0.069 µM; in assay [2] (setting [5]), 0.025 µM. The IC50 in assay [3] (setting [9]) is < 0.005 µM.
The matching figures for `Cc1cc(C#N)cc(Oc2ccc(S(=O)(=O)CF)c3c2CC(F)(F)[C@H]3O)c1` [Compound 7, (S)-3-((2,2-Difluoro-7-((fluoromethyl)sulfonyl)-1-hydroxy-2,3-dihydro-1H-inden-4-yl)oxy)-5-methylbenzonitrile]: 0.07 µM, 0.034 µM and < 0.005 µM.
As for `N#Cc1c(Oc2cc(F)cc(Cl)c2)ccc2c1C(O)CS2(=O)=O` (stereo not drawn) [Compound 117, 5-(3-chloro-5-fluorophenoxy)-3-hydroxy-2,3-dihydrobenzo[b]thiophene-4-carbonitrile 1,1-dioxide], the EC50 was found to be 0.333 µM in assay [1] (setting [7]) and 0.451 µM in assay [2] (setting [8]). For the same molecule, the IC50 in assay [3] (setting [9]) is 0.061 µM.
For the molecule `N#Cc1cc(F)cc(Oc2ccc(S(=N)(=O)CF)c3c2CC(F)(F)[C@H]3O)c1` (single isomer, unassigned) [Compound 38], the EC50 in assay [1] (setting [4]) is 1.44 µM; in assay [2] (setting [5]) it was 0.195 µM. In addition, the IC50 in assay [3] (setting [9]) was 0.094 µM.
In the case of `N#Cc1cc(F)cc(Oc2ccc(S(N)(=O)=O)c3c2[C@@H](F)C(F)(F)[C@H]3O)c1` [Compound 102, (1R,3S)-7-(3-cyano-5-fluoro-phenoxy)-1,2,2-trifluoro-3-hydroxy-indane-4-sulfonamide], the figures for the EC50 in assay [1] (setting [10]) and in assay [2] (24 h) were 0.011 µM and 0.006 µM, respectively.
For `NS(=O)(=O)c1ccc(Oc2cncc(F)c2)c2c1[C@H](O)C(F)(F)[C@@H]2F` [Compound 105, (1R,3S)-1,2,2-trifluoro-7-[(5-fluoro-3-pyridyl)oxy]-3-hydroxy-indane-4-sulfonamide], the EC50 came out at 0.16 µM in assay [1] (setting [4]) and 0.114 µM in assay [2] (setting [5]). In addition, the IC50 in assay [3] (setting [9]) amounted to 0.018 µM.
In the case of `N#Cc1cc(F)cc(Oc2ccc3c(c2C(F)F)C(N)C(F)(F)S3(=O)=O)c1` (stereo not drawn) [Compound 136, 3-((3-Amino-4-(difluoromethyl)-2,2-difluoro-1,1-dioxido-2,3-dihydrobenzo[b]thiophen-5-yl)oxy)-5-fluorobenzonitrile], the results for the EC50 in assay [1] (setting [7]) and in assay [2] (setting [8]) were 0.2 µM and 0.11 µM, respectively. Also, in assay [3] (setting [9]), the IC50 was < 0.005 µM.
For the molecule `N#Cc1cc(F)cc(Oc2ccc3c(c2C(F)F)[C@@H](N)C(F)(F)S3(=O)=O)c1` [Compound 151, (R)-3-((3-Amino-4-(difluoromethyl)-2,2-difluoro-1,1-dioxido-2,3-dihydrobenzo[b]thiophen-5-yl)oxy)-5-fluorobenzonitrile], the EC50 was found to be 0.68 µM in assay [1] (setting [7]) and 0.139 µM in assay [2] (setting [8]). Moreover, the IC50 in assay [3] (setting [9]) is 0.069 µM.
Take `N#Cc1cncc(Oc2ccc(S(N)(=O)=O)c3c2[C@@H](F)C(F)(F)[C@H]3O)c1` [Compound 104, (1R,3S)-7-[(5-cyano-3-pyridyl)oxy]-1,2,2-trifluoro-3-hydroxy-indane-4-sulfonamide]: the EC50 in assay [1] (setting [4]) was found to be 0.136 µM; in assay [2] (setting [5]), 0.125 µM. Further, in assay [3] (setting [9]), the IC50 stood at 0.024 µM.
On to `N#Cc1cncc(Oc2ccc(S(=O)(=O)CF)c3c2[C@@H](F)C(F)(F)[C@H]3O)c1` [Compound 108, 5-(((1S,3R)-2,2,3-trifluoro-7-((fluoromethyl)sulfonyl)-1-hydroxy-2,3-dihydro-1H-inden-4-yl)oxy)nicotinonitrile], for which the EC50 turned out to be 0.123 µM in assay [1] (setting [4]) and 0.042 µM in assay [2] (setting [5]). In assay [3] (setting [9]), the IC50 worked out at 0.0067 µM.
Take `N#Cc1cc(F)cc(Oc2ccc(S(=O)(=O)CF)c3c2CC(F)(F)[C@H]3O)c1` [Compound 3, (S)-3-((2,2-difluoro-7-((fluoromethyl)sulfonyl)-1-hydroxy-2,3-dihydro-1H-inden-4-yl)oxy)-5-fluorobenzonitrile]: the values for the EC50 in assay [1] (setting [4]) and in assay [2] (setting [5]) were 0.02 µM and 0.007 µM, respectively. Moreover, in assay [3] (setting [6]), the IC50 is < 0.005 µM.
In the case of `O=S(=O)(c1ccc(Oc2cc(F)cc(Cl)c2)c2c1[C@H](O)CC2)C(F)F` [Compound 2, (R)-4-(3-chloro-5-fluorophenoxy)-7-((difluoromethyl)sulfonyl)-2,3-dihydro-1H-inden-1-ol], in assay [1] (setting [10]), the EC50 amounted to 0.245 µM.
For the molecule `N#Cc1ccc(Oc2cc(F)cc(F)c2)c2c1[C@H](O)C(F)(F)C2` [Compound 4, (S)-7-(3,5-Difluorophenoxy)-2,2-difluoro-3-hydroxy-2,3-dihydro-1H-indene-4-carbonitrile], the EC50 in assay [1] (setting [10]) stood at 0.217 µM.
In the case of `O=S1(=O)c2ccc(Oc3cc(F)cc(Cl)c3)c(Br)c2C(O)C1(F)F` (stereo not drawn) [Compound 119, 4-Bromo-5-(3-chloro-5-fluorophenoxy)-2,2-difluoro-3-hydroxy-2,3-dihydrobenzo[b]thiophene 1,1-dioxide], the EC50 worked out at 0.064 µM in assay [1] (setting [7]) and 0.046 µM in assay [2] (setting [8]).
As for `N#Cc1cc(F)cc(Oc2ccc(S(=N)(=O)C(F)(F)F)c3c2CC(F)(F)[C@H]3O)c1` (single isomer, unassigned) [Compound 69], in assay [1] (setting [4]), the EC50 amounted to 0.02 µM. For the same molecule, the half-maximal inhibitory concentration (IC50) in assay [3] (setting [9]) is < 0.005 µM.
Consider `N#Cc1cc(F)cc(Oc2ccc(S(=N)(=O)C(F)(F)F)c3c2CC(F)(F)[C@H]3O)c1` (single isomer, unassigned) [Compound 70], for which the EC50 in assay [1] (setting [11]) came to 0.019 µM. For the same molecule, in assay [3] (setting [9]), the half-maximal inhibitory concentration (IC50) is < 0.005 µM.
On to `O=S(=O)(c1ccc(Oc2ccc(F)c3[nH]ncc23)c2c1[C@H](O)C(F)(F)C2)C(F)(F)F` [Compound 30, (S)-2,2-difluoro-4-((7-fluoro-1H-indazol-4-yl)oxy)-7-((trifluoromethyl)sulfonyl)-2,3-dihydro-1H-inden-1-ol], for which the EC50 in assay [1] (setting [4]) amounted to 0.054 µM; in assay [2] (setting [5]), 0.03 µM.
Consider `CS(=O)(=O)c1ccc(Oc2cncc(C#N)c2)c2c1[C@H](O)[C@H](F)C2` [Compound 77, 5-(((1S,2R)-2-fluoro-1-hydroxy-7-(methylsulfonyl)-2,3-dihydro-1H-inden-4-yl)oxy)nicotinonitrile], for which, in assay [2] (setting [5]), the EC50 is 1.07 µM. Further, the IC50 in assay [3] (setting [9]) came out at 1.8 µM.
For the molecule `O=S(=O)(CF)c1ccc(Oc2cccc3sccc23)c2c1C(O)C(F)(F)C2` (stereo not drawn) [Compound 22, 4-(Benzo[b]thiophen-4-yloxy)-2,2-difluoro-7-((fluoromethyl)sulfonyl)-2,3-dihydro-1H-inden-1-ol], the EC50 in assay [2] (setting [5]) was determined as 0.512 µM. Moreover, in assay [3] (setting [9]), the IC50 is 0.23 µM.
In the same order, the values of `N#Cc1cc(F)cc(Oc2ccc(S(=O)(=O)C(F)(F)F)c3c2CC(F)C3N)c1` (stereo not drawn) [Compound 32, 3-((1-amino-2-fluoro-7-((trifluoromethyl)sulfonyl)-2,3-dihydro-1H-inden-4-yl)oxy)-5-fluorobenzonitrile] are 2.45 µM and 3.51 µM.
For `CS(=O)(=NC#N)c1ccc(Oc2cc(F)cc(C#N)c2)c2c1[C@H](O)C(F)(F)[C@@H]2F` (single isomer, unassigned) [Compound 81], the 50% effective concentration (EC50) in assay [1] (setting [11]) was 0.014 µM. Besides, the IC50 in assay [3] (setting [9]) is < 0.005 µM.
`N#Cc1cccc(Oc2ccc3c(c2C(F)F)[C@@H](O)C(F)(F)S3(=O)=O)c1` [Compound 199, (R)-3-((4-(difluoromethyl)-2,2-difluoro-3-hydroxy-1,1-dioxido-2,3-dihydrobenzo[b]thiophen-5-yl)oxy)benzonitrile]: in assay [2] (setting [5]), the EC50 amounted to 0.033 µM. For the same molecule, the IC50 in assay [3] (setting [9]) was 0.034 µM.
Consider `N#Cc1cc(F)cc(Oc2ccc(S(=N)(=O)CF)c3c2CC(F)(F)[C@H]3O)c1` (single isomer, unassigned) [Compound 39], for which the EC50 in assay [2] (setting [8]) turned out to be 0.255 µM. For the same molecule, in assay [3] (setting [9]), the IC50 worked out at 0.076 µM.

The values above are taken from patent US10098878B2, “HIF-2α inhibitors for treating iron overload disorders” (The Board of Regents of the University of Texas System, priority 2014, dated 2018).
